From PubChem BioAssay (NCI)
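The compound was tested at five concentrations on cells cultured in 96-well plates, with a 48-hour exposure period. GI50 is the concentration that inhibits growth by half. TGI: concentration producing complete growth inhibition.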

Key:
Test in all cases: NCI-60 cell line screen, 48 h
SN12C renal = system: SN12C renal
HL-60(TB) leukemia = system: HL-60(TB) leukemia
A549 NSCLC = system: A549 NSCLC
UACC-257 melanoma = system: UACC-257 melanoma
MDA-MB-435 = system: MDA-MB-435
NCI-H226 lung = system: NCI-H226 lung
NCI/ADR-RES ovarian = system: NCI/ADR-RES ovarian
A498 renal = system: A498 renal
ACHN renal = system: ACHN renal
KM12 colon = system: KM12 colon

| SMILES | GI50 (SN12C renal) | TGI (SN12C renal) | GI50 (HL-60(TB) leukemia) | TGI (HL-60(TB) leukemia) | GI50 (A549 NSCLC) | TGI (A549 NSCLC) | GI50 (UACC-257 melanoma) | TGI (UACC-257 melanoma) | GI50 (MDA-MB-435) | TGI (MDA-MB-435) | GI50 (NCI-H226 lung) | TGI (NCI-H226 lung) | GI50 (NCI/ADR-RES ovarian) | TGI (NCI/ADR-RES ovarian) | GI50 (A498 renal) | TGI (A498 renal) | GI50 (ACHN renal) | TGI (ACHN renal) | GI50 (KM12 colon) | TGI (KM12 colon) |
| --- | --- | --- | --- | --- | --- | --- | --- | --- | --- | --- | --- | --- | --- | --- | --- | --- | --- | --- | --- | --- |
| CCCn1cc(C2=C(c3cn(C)c4ccccc34)C(=O)NC2=O)c2ccccc21 | 2.43 µM | 6.47 µM | 0.835 µM | 3.64 µM | 1.86 µM | > 25 µM | 1.8 µM | > 25 µM | 0.0992 µM | 0.691 µM | 2.69 µM | 9.78 µM | 1.32 µM | 24.5 µM | 0.837 µM | 4.77 µM | 2.04 µM | 7.45 µM | 1.14 µM | 7.92 µM |
| CCOCCc1c(O)nc(SC)[nH]c1=O | > 100 µM | > 100 µM | > 100 µM | > 100 µM | > 100 µM | > 100 µM | > 100 µM | > 100 µM | > 100 µM | > 100 µM | > 100 µM | > 100 µM | > 100 µM | > 100 µM | > 100 µM | > 100 µM | > 100 µM | > 100 µM | > 100 µM | > 100 µM |
| O=C1Nc2ccccc2C1(c1ccc(O)c(F)c1)c1ccc(O)c(F)c1 | 0.353 µM | 12.2 µM | 15 µM | 42.6 µM | 19.1 µM | 81.8 µM | 24.6 µM | 67.5 µM | 3.06 µM | 11.2 µM | 11 µM | 39.7 µM | 0.389 µM | > 100 µM | 11.1 µM | 27.4 µM | 3.07 µM | > 84 µM | 3.07 µM | 22.9 µM |
| CC(C)c1ccc2c(N=Nc3ccc(S(N)(=O)=O)cc3)c(O)[nH]c2c1 | > 14.8 µM | > 25 µM | > 25 µM | > 25 µM | > 14.8 µM | > 25 µM | > 21.5 µM | > 25 µM | > 23.2 µM | > 25 µM | 6.62 µM | > 20.6 µM | > 13.5 µM | > 25 µM | > 21.5 µM | > 25 µM | > 14 µM | > 25 µM | 1.24 µM | > 25 µM |
